Among the test systems are DMS 273 small cell lung; EKVX NSCLC; K-562 leukemia; M14 melanoma; M19-MEL melanoma; NCI-H460 lung; RXF 393 renal; SK-OV-3 ovarian; SNB-19 CNS; MDA-MB-435; PC-3 prostate.
Holding throughout (experiment): NCI-60 cell line screen, 48 h

Among the data in PubChem BioAssay (NCI) are TGI values, retold here.

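The compound was tested at five concentrations on cells cultured in 96-well plates, with a 48-hour exposure period. TGI: total growth inhibition.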

With `CC(C)CCC[C@@H](C)C1CCC2[C@@H]3CC=C4C[C@@H](C(=O)NCC[N+](C)(C)CCCS(=O)(=O)[O-])CC[C@]4(C)C3CC[C@@]21C` (stereo partly specified), the TGI with DMS 273 small cell lung turned out to be 31.4 µM; in the experiment on EKVX NSCLC it was 31 µM; in the experiment with K-562 leukemia, 29.9 µM; in the experiment with M14 melanoma, 31.6 µM; in the experiment with M19-MEL melanoma, 31.1 µM; in the experiment on NCI-H460 lung, 30.6 µM. The TGI stood at 36.5 µM in the experiment on RXF 393 renal, 30.9 µM in the experiment with SK-OV-3 ovarian and 36.4 µM in the experiment with SNB-19 CNS.
Take `O=c1[nH]c2cc([N+](=O)[O-])ccc2nc1/C(=N/Nc1ccccc1)C(O)c1ccc(C(O)/C(=N\Nc2ccccc2)c2cnc3cc([N+](=O)[O-])ccc3n2)cc1` (stereo unspecified): the TGI in the experiment with EKVX NSCLC, in the experiment on K-562 leukemia, with M14 melanoma, in the experiment on M19-MEL melanoma, with NCI-H460 lung and in the experiment with RXF 393 renal was over 100 µM each time. Also, the TGI with SK-OV-3 ovarian and in the experiment with SNB-19 CNS was over 100 µM each time.
As to `CC(C)(C)NC(=O)NC12CC3CC(CC(F)(C3)C1)C2`, the TGI in the experiment with DMS 273 small cell lung, in the experiment with EKVX NSCLC, in the experiment on K-562 leukemia, with M14 melanoma, with M19-MEL melanoma and in the experiment with NCI-H460 lung was over 100 µM throughout. Also, the TGI in the experiment on RXF 393 renal, in the experiment with SK-OV-3 ovarian and with SNB-19 CNS was over 100 µM each time.
In the case of `O=C(C[n+]1ccccc1)N/N=C(\Cc1nc2ccc([N+](=O)[O-])cc2[nH]c1=O)C(=O)Nc1cc(Cl)c(Cl)cc1Cl`, the TGI in the experiment on EKVX NSCLC, in the experiment on K-562 leukemia, in the experiment on M14 melanoma, in the experiment with MDA-MB-435, with NCI-H460 lung and in the experiment with PC-3 prostate was over 100 µM throughout. Besides, the TGI in the experiment with RXF 393 renal, in the experiment with SK-OV-3 ovarian and with SNB-19 CNS was over 100 µM in each case.
Consider `CC(C)(C)c1cc2c(O)c(c1)Cc1cc(C(C#N)(Cc3ccc4ccccc4c3)Cc3ccc4ccccc4c3)cc(c1O)Cc1cc(C(C)(C)C)cc(c1O)Cc1cc(C(C#N)(Cc3ccc4ccccc4c3)Cc3ccc4ccccc4c3)cc(c1O)C2`, for which the TGI in the experiment on EKVX NSCLC, in the experiment with K-562 leukemia, in the experiment on M14 melanoma, in the experiment with MDA-MB-435, in the experiment with NCI-H460 lung and in the experiment with PC-3 prostate was over 100 µM throughout. In addition, the TGI in the experiment on RXF 393 renal, in the experiment on SK-OV-3 ovarian and in the experiment with SNB-19 CNS was over 100 µM throughout.
`O=C(O)CS`: the TGI in the experiment on DMS 273 small cell lung, in the experiment on EKVX NSCLC, in the experiment with K-562 leukemia, with M19-MEL melanoma, in the experiment with NCI-H460 lung and with RXF 393 renal was over 100 µM throughout. In addition, the TGI in the experiment on SK-OV-3 ovarian and in the experiment with SNB-19 CNS was over 100 µM in each case.
On to `Oc1ccccc1C=Nc1ccc(-c2nc3ccccc3[nH]2)cc1`, for which the TGI in the experiment on EKVX NSCLC, with K-562 leukemia, with M14 melanoma, with MDA-MB-435, in the experiment with NCI-H460 lung and with PC-3 prostate was over 100 µM in each case. Besides, the TGI with RXF 393 renal, in the experiment on SK-OV-3 ovarian and in the experiment with SNB-19 CNS was over 100 µM throughout.
For the molecule `CCN(CC)CCN1C(=O)c2c(c(-c3ccccc3)c3ccccc3c2-c2ccccc2)C1=O`, the TGI with EKVX NSCLC, with K-562 leukemia, with M14 melanoma, in the experiment on MDA-MB-435, in the experiment with NCI-H460 lung and in the experiment with PC-3 prostate was over 100 µM throughout. Moreover, the TGI with RXF 393 renal, in the experiment on SK-OV-3 ovarian and with SNB-19 CNS was over 100 µM throughout.
Regarding `CS(=O)(=O)c1c(N)c2nc(Cl)cn2c2nc3ccccc3nc12`, the TGI in the experiment with DMS 273 small cell lung, in the experiment with EKVX NSCLC, in the experiment on K-562 leukemia, in the experiment on M14 melanoma, with M19-MEL melanoma and in the experiment on NCI-H460 lung was over 100 µM throughout. The TGI in the experiment with SK-OV-3 ovarian and in the experiment with SNB-19 CNS was over 100 µM each time.
For the molecule `Clc1ccccc1C1=NN(c2ccccc2)C2c3ccccc3OCC12` (stereo unspecified), the TGI in the experiment on DMS 273 small cell lung, in the experiment on EKVX NSCLC, in the experiment on K-562 leukemia, in the experiment with M19-MEL melanoma, in the experiment with NCI-H460 lung and in the experiment with RXF 393 renal was over 100 µM in each case. In addition, the TGI in the experiment on SK-OV-3 ovarian and in the experiment on SNB-19 CNS was over 100 µM each time.
Take `O=C(Nc1nn(C(=O)c2ccc(Cl)cc2)c(=O)s1)c1ccc(Cl)cc1`: the TGI in the experiment on EKVX NSCLC, in the experiment with K-562 leukemia, in the experiment on M14 melanoma, in the experiment with MDA-MB-435, in the experiment on NCI-H460 lung and with PC-3 prostate was over 100 µM in each case. Besides, the TGI in the experiment with RXF 393 renal, in the experiment on SK-OV-3 ovarian and with SNB-19 CNS was over 100 µM in each case.
Consider `CC1=CCC2C3(C)CCC2(C(C)C)C1C3` (stereo unspecified) (tested in a mixture with another compound), for which the TGI was 50.9 µM in the experiment with EKVX NSCLC; 99 µM in the experiment with K-562 leukemia; 45.7 µM with M14 melanoma; 88.2 µM in the experiment with MDA-MB-435; 32.9 µM in the experiment on NCI-H460 lung; over 100 µM in the experiment with PC-3 prostate. Also, the TGI in the experiment on RXF 393 renal was 33.2 µM; in the experiment with SK-OV-3 ovarian, over 100 µM; in the experiment on SNB-19 CNS, 33.8 µM.
On to `Cc1ccc2c(c1)C(=O)N1CCC[C@H]1C=N2`, for which the TGI in the experiment with EKVX NSCLC is 71 µM; in the experiment with K-562 leukemia it was over 100 µM; in the experiment on M14 melanoma, 47.8 µM; in the experiment with MDA-MB-435 it was 33.2 µM; with NCI-H460 lung it was over 71.6 µM; in the experiment on PC-3 prostate it was over 74.4 µM. Further, the TGI in the experiment on RXF 393 renal is 16.1 µM; in the experiment with SK-OV-3 ovarian it was over 100 µM; in the experiment with SNB-19 CNS it was over 100 µM.
Regarding `CCN(CC)CCCNc1ncc(C)c2[nH]c3ccncc3c12`, the TGI with DMS 273 small cell lung is 25.8 µM; in the experiment on EKVX NSCLC it was 63.3 µM; with K-562 leukemia it was over 100 µM; in the experiment on M19-MEL melanoma, 28 µM; in the experiment with NCI-H460 lung, 15.6 µM; in the experiment with RXF 393 renal it was 23 µM. Further, the TGI in the experiment with SK-OV-3 ovarian was 15.9 µM; with SNB-19 CNS, over 100 µM.
On to `CC(C)OP(=O)(OC(C)C)/C(C#N)=C/c1ccco1`, for which the TGI in the experiment with EKVX NSCLC, in the experiment with K-562 leukemia, in the experiment on M14 melanoma, with MDA-MB-435, in the experiment with NCI-H460 lung and in the experiment on PC-3 prostate was over 100 µM each time. Also, the TGI in the experiment with RXF 393 renal, with SK-OV-3 ovarian and in the experiment on SNB-19 CNS was over 100 µM throughout.
Regarding `O=C(O)CNc1ccc(C(=O)O)cc1`, the TGI in the experiment on EKVX NSCLC, with K-562 leukemia, in the experiment with M14 melanoma, in the experiment with MDA-MB-435, in the experiment with NCI-H460 lung and with PC-3 prostate was over 100 µM throughout. The TGI with RXF 393 renal, with SK-OV-3 ovarian and in the experiment with SNB-19 CNS was over 100 µM each time.
On to `CCOC(=O)C(C(=O)c1ccccc1C(=O)OC)=P(c1ccccc1)(c1ccccc1)c1ccccc1`, for which the TGI in the experiment on EKVX NSCLC, with K-562 leukemia, with M14 melanoma, in the experiment with MDA-MB-435, with NCI-H460 lung and in the experiment with PC-3 prostate was over 10 µM in each case. For the same molecule, the TGI in the experiment with RXF 393 renal, in the experiment on SK-OV-3 ovarian and in the experiment on SNB-19 CNS was over 10 µM throughout.
`CCN(CC)CCCC(C)Nc1ccnc2ccc3nn(C)nc3c12` (stereo unspecified): the TGI is 91.5 µM with DMS 273 small cell lung; over 100 µM in the experiment with EKVX NSCLC; 86.3 µM in the experiment on K-562 leukemia; 90.1 µM in the experiment with M14 melanoma; over 100 µM in the experiment on M19-MEL melanoma; over 100 µM in the experiment with NCI-H460 lung. Further, the TGI in the experiment on SK-OV-3 ovarian and in the experiment on SNB-19 CNS was over 100 µM each time.
As for `Cc1cc(-c2nc3ccccc3s2)ccc1N`, the TGI is over 95.3 µM in the experiment with EKVX NSCLC; over 86 µM in the experiment on K-562 leukemia; over 73.5 µM with M14 melanoma; over 79.8 µM in the experiment on MDA-MB-435; over 71.7 µM with NCI-H460 lung; over 88.8 µM in the experiment on PC-3 prostate. The TGI in the experiment on RXF 393 renal is 98.7 µM; in the experiment on SK-OV-3 ovarian it was over 100 µM; in the experiment with SNB-19 CNS, over 100 µM.
`COC(=O)C1c2c(c3ccccc3n2C(=O)OC)CCN2CCC1C(S(=O)(=O)c1ccccc1)C2=O` (stereo unspecified): the TGI in the experiment with EKVX NSCLC, with K-562 leukemia, in the experiment with M14 melanoma, in the experiment with MDA-MB-435, in the experiment with NCI-H460 lung and in the experiment with PC-3 prostate was over 100 µM each time. Moreover, the TGI in the experiment on RXF 393 renal, in the experiment on SK-OV-3 ovarian and with SNB-19 CNS was over 100 µM in each case.
As for `C/C(=N\Nc1nc2ccccc2n1C)c1cnccn1`, the TGI in the experiment with EKVX NSCLC was over 100 µM; with K-562 leukemia, over 100 µM; with M14 melanoma, 6.53 µM; in the experiment on MDA-MB-435, over 100 µM; in the experiment with NCI-H460 lung, over 100 µM; in the experiment on PC-3 prostate it was over 100 µM. Further, the TGI in the experiment on RXF 393 renal, with SK-OV-3 ovarian and with SNB-19 CNS was over 100 µM throughout.
As to `S=P1(N2CCCCC2)Oc2ccc3ccccc3c2-c2c(ccc3ccccc23)O1`, the TGI is over 100 µM in the experiment on DMS 273 small cell lung; over 100 µM in the experiment on EKVX NSCLC; over 100 µM in the experiment with K-562 leukemia; over 100 µM with M19-MEL melanoma; over 91.6 µM with NCI-H460 lung; over 100 µM in the experiment on RXF 393 renal. Besides, the TGI in the experiment with SK-OV-3 ovarian and in the experiment with SNB-19 CNS was over 100 µM each time.
